Measured values taken from patent US20120276200A1, “FORMULATIONS OF QUINOLINONES” (priority 2005, published 2012).

Assay: Hygroscopicity, DVS experiment (moisture induced weight change)
Format: physicochemical
Procedure: All DVS measurements were carried out at 2.5% relative humidity change per hour.

Moisture induced % weight change (55% RH, listed as Lactate trial 3) [%] | Water uptake in DVS experiment (RH above 90%, not completely reversible) | Hygroscopicity in DVS experiment (below about 80% RH) | Moisture induced % weight change (55% RH, listed as Malate trial 3) [%] | Moisture induced % weight change (95% RH, listed as Malate trial 3) [%] | Compound
0.08 | significant water uptake | not hygroscopic | – | – | CC(O)C(=O)O.CN1CCN(c2ccc3nc(-c4c(N)c5c(F)cccc5[nH]c4=O)[nH]c3c2)CC1 [Lactate trial 1, Lactic Acid salt of 4-Amino-5-fluoro-3-[6-(4-methyl-piperazin-1-yl)-1H-benzimidazol-2-yl]-1H-quinolin-2-one]
– | – | – | 0.08 | 0.30 | CN1CCN(c2ccc3nc(-c4c(N)c5c(F)cccc5[nH]c4=O)[nH]c3c2)CC1.O=C(O)CC(O)C(=O)O [Malate trial 1]
